The values that follow come from PubChem BioAssay (NCI).

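Exposure lasted 48 hours, with cells grown in 96-well plates and compounds tested at five concentrations. TGI: concentration producing complete growth inhibition.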

Holding throughout (assay): growth of human tumour cells (NCI), 48 h
Experiment [1] concerns MOLT-4 leukemia.
In experiment [2] the test system is SK-OV-3 ovarian.
Experiment [3] relates to HT29 colon.
Experiment [4] concerns MDA-N.
Experiment [5] relates to OVCAR-4 ovarian.
For experiment [6], the system named is HCT-116 colon.
Experiment [7] deals with U251 CNS.
Experiment [8] deals with ACHN renal.
The test system of experiment [9] is SF-268 CNS.
The subject of experiment [10] is CCRF-CEM leukemia.
The subject of experiment [11] is HCT-15 colon.
For experiment [12], the system named is HCC-2998 colon.
Experiment [13] deals with MALME-3M melanoma.
Experiment [14] has as its system DU-145 prostate.
For experiment [15], the system named is SK-MEL-5 melanoma.
The test system of experiment [16] is MDA-MB-231 breast.
In experiment [17] the test system is KM12 colon.
For experiment [18], the system named is SN12C renal.
For experiment [19], the system named is HS 578T breast.

Regarding `CC1=C(C#N)C23C(=O)c4ccccc4C(O)=C2C(=O)C=CC3(O)N1` (stereo unspecified), the TGI was > 100 µM in [1]; > 100 µM in experiment [2]; 5.02 µM in experiment [3]; 3.95 µM in [4]; 4.16 µM in experiment [5]; > 100 µM in experiment [6]. Moreover, the TGI in [7] is > 100 µM; in [8], 19.9 µM; in experiment [9], 26.2 µM; in [10], > 100 µM; in [11], > 100 µM; in [12], 23 µM. The TGI in experiment [13] is 3.86 µM; in experiment [14], 7.69 µM; in [15], 2.75 µM; in experiment [16], 43.5 µM; in experiment [17], 38.6 µM; in [18], 6.19 µM.
In the case of `CCSC1=N/C(=C\c2ccco2)C(NN)=N1`, the TGI in [1], in experiment [2], in experiment [3], in experiment [19], in [4] and in experiment [6] was > 50 µM throughout. Besides, the TGI in experiment [7], in [8], in [9], in experiment [10], in experiment [11] and in experiment [13] was > 50 µM in each case. In addition, the TGI in experiment [14], in [15], in experiment [16], in experiment [17] and in [18] was > 50 µM throughout.
For the molecule `Oc1cccc(-c2ccc3c4c2O[C@H]2c5[nH]c6ccccc6c5C[C@@]5(O)[C@@H](C3)N(CC3CC3)CC[C@]425)c1`, the TGI was 3.09 µM in [3]; 3.55 µM in [19]; 3.05 µM in experiment [4]; 2.96 µM in experiment [5]; 3.22 µM in experiment [6]; 3.67 µM in [8]. The TGI in experiment [9] was 3.06 µM; in [10], 10.4 µM; in experiment [11] it was 3.03 µM; in experiment [13], 3.38 µM; in experiment [14], 3.36 µM; in experiment [15], 10.3 µM. Besides, the TGI amounted to 4.03 µM in experiment [16], 3.5 µM in experiment [17] and 3.04 µM in experiment [18].
In the case of `Cc1cc(N)ccc1N=Nc1ccc(S(=O)(=O)CCOS(=O)(=O)O)cc1`, the TGI was > 32.5 µM in [1]; 6.53 µM in [3]; 35.5 µM in experiment [19]; 0.755 µM in experiment [4]; 29 µM in experiment [5]; 12.6 µM in experiment [6]. In addition, the TGI in experiment [7] was 13.1 µM; in [8] it was 14.4 µM; in [9], 21.7 µM; in experiment [10], > 100 µM; in experiment [11], 11.3 µM; in experiment [12], 6.74 µM. The TGI in experiment [13] was 20.5 µM; in [14], > 100 µM; in [15], 2.23 µM; in experiment [17], 13.2 µM; in experiment [18], 11.1 µM.
On to `COc1ccc(/C=N/n2c(=O)[nH]c3ccccc3c2=O)cc1`, for which the TGI in experiment [1], in experiment [2], in [3], in experiment [19], in [4] and in [6] was > 100 µM in each case. Further, the TGI in experiment [7], in experiment [8], in experiment [9], in experiment [10], in experiment [11] and in experiment [14] was > 100 µM throughout. The TGI in experiment [15], in [16], in [17] and in [18] was > 100 µM throughout.
As to `N#CC1(C#N)NC(c2cccnc2)C(C#N)(C#N)NC1c1cccnc1` (stereo unspecified), the TGI in [1], in experiment [2], in experiment [3], in [4], in experiment [5] and in experiment [6] was > 100 µM in each case. Further, the TGI in [7], in [9], in experiment [10], in experiment [11], in experiment [12] and in [13] was > 100 µM each time. In addition, the TGI in experiment [14], in experiment [15], in experiment [16], in experiment [17] and in experiment [18] was > 100 µM each time.
For `CN(C)CCCNC(=O)c1cc(NC(=O)c2cc(NS(=O)(=O)c3ccc4c(c3)C(=O)c3ccccc3C4=O)cn2C)cn1C`, the TGI in experiment [1], in experiment [2], in experiment [3], in experiment [4], in experiment [5] and in experiment [6] was > 100 µM in each case. Moreover, the TGI in experiment [7], in experiment [8], in experiment [9], in experiment [10], in [11] and in experiment [12] was > 100 µM throughout. Further, the TGI was 79.4 µM in [13]; > 100 µM in experiment [14]; > 100 µM in experiment [15]; > 100 µM in [16]; > 100 µM in experiment [17]; > 100 µM in experiment [18].
As for `C=CCc1c(C)nc(C)nc1N/N=C/C=C/c1ccccc1`, the TGI is 54 µM in [1]; > 100 µM in experiment [2]; > 100 µM in experiment [3]; > 100 µM in [19]; > 100 µM in experiment [4]; 0.18 µM in experiment [5]. Further, the TGI in experiment [6] is > 100 µM; in [7], 61.3 µM; in experiment [8], > 100 µM; in [9], > 100 µM; in [10] it was > 100 µM; in [11] it was > 100 µM. Also, the TGI was > 100 µM in experiment [13], 84.2 µM in experiment [15], > 100 µM in [16] and > 100 µM in experiment [18].
Consider `NC1OC(COC(=O)c2ccccc2)C(O)C(OC(=O)c2ccccc2)C1OC(=O)c1ccccc1` (stereo unspecified), for which the TGI was 54 µM in experiment [1]; > 100 µM in experiment [2]; 32.5 µM in [3]; 42.6 µM in experiment [19]; 46.5 µM in [4]; > 100 µM in experiment [5]. In addition, the TGI in experiment [6] is 34.2 µM; in [7], 34.2 µM; in [8] it was 56 µM; in [9], 67.4 µM; in experiment [11] it was > 100 µM; in experiment [13] it was 36.3 µM. Further, the TGI in experiment [14] was > 100 µM; in experiment [15] it was 27.5 µM; in experiment [16], 45.9 µM; in experiment [18] it was 50.9 µM.
As for `c1ccc(CSc2ccccc2CN2CCN(Cc3ccccc3SCc3ccccc3)CCN(Cc3ccccc3SCc3ccccc3)CC2)cc1`, the TGI came to 6.26 µM in [1]; 6.34 µM in experiment [2]; 2.42 µM in experiment [3]; 3.02 µM in experiment [4]; 3.38 µM in [5]; 2.03 µM in experiment [6]. In addition, the TGI is 2.08 µM in experiment [7]; 10.7 µM in [8]; 10.3 µM in experiment [9]; > 100 µM in experiment [10]; 3.3 µM in experiment [11]; 2.39 µM in experiment [12]. The TGI in experiment [13] came out at 3.56 µM; in experiment [14], 12.3 µM; in experiment [15] it was 2.95 µM; in experiment [16] it was 3.16 µM; in [17] it was 5.26 µM; in experiment [18], 3.36 µM.
Regarding `CCN1CCN(c2nc3ccccc3nc2C(=O)c2ccc(OC)cc2)CC1`, the TGI in experiment [1], in [2], in experiment [3], in experiment [19], in [4] and in experiment [5] was > 100 µM throughout. Moreover, the TGI was 36.7 µM in experiment [6]; > 100 µM in experiment [7]; > 100 µM in [8]; > 100 µM in [9]; > 100 µM in experiment [11]; > 100 µM in experiment [12]. Besides, the TGI in experiment [13] was 62.2 µM; in experiment [14], > 100 µM; in experiment [15], > 100 µM; in experiment [17], > 100 µM.
Turning to `CC(C)(C)OC(=O)[C@@H]1CCC(=S)N1Cc1ccccc1`, the TGI in [1], in experiment [2], in experiment [4], in [5], in [6] and in experiment [7] was > 100 µM in each case. Further, the TGI in experiment [8], in [10], in [11], in [12], in [13] and in experiment [14] was > 100 µM in each case. Further, the TGI in experiment [15], in [16], in experiment [17] and in [18] was > 100 µM throughout.
`CC1=[N+]([O-])C(C)(C)N(N=O)C1(C)C`: the TGI in [1], in [3], in experiment [4], in experiment [5], in experiment [6] and in experiment [7] was > 10 µM in each case. The TGI in experiment [8], in experiment [9], in [10], in [11], in [12] and in experiment [13] was > 10 µM throughout. For the same molecule, the TGI in experiment [14], in experiment [16], in experiment [17] and in experiment [18] was > 10 µM throughout.
